Assays:
Type in all cases: cell-based
HeLa cells = test: LCDA quantification of Ebastine-induced cell death in HeLa cells (FIG. 7); settings: 50 uM Ebastin, treated right before acquisition; versus control well; 5 h post treatment
Description: FIG. 7: Application of LCDA to quantify Ebastine-induced cell death—HeLa cells grown in two wells were used as (A) control and (B) treatment experiment.

[1] = system: 3T3-L1-derived preadipocyte cells; test: LCDA quantification of Ebastin-induced cell death in 3T3-L1-derived preadipocytes; settings: 20 μM Ebastin added 1 hour before acquisition; versus untreated cells
Description: It was finally concluded by quantifying the capacity of another drug to kill cells, Ebastin, to validate the simplest of the uses of the LCDA. 3T3-L1-derived preadipocyte cells were seeded in 35 mm dish at ˜30,000 cells/ml and let to grow for 48 h in DMEM supplemented with 10% FBS.

[2] = system: 3T3-L1-derived preadipocyte cells; test: Live cell death assay (LCDA) benchmarked with live fluorescent cell death kit, camptothecin treatment; settings: 2.5 μM camptothecin added 4 hours before acquisition; imaged for 17.5 hours; versus without camptothecin
Description: To validate the performance of the LCDA, the invention method was benchmarked with a state-of-the-art live fluorescent kit (FIG. 6). 3t3-derived preadipocytes were imaged on an optical diffraction tomography system combining RI recording and epifluorescence, with and without addition of camptothecin, a proapoptotic drug (FIG. 6). Annexin V-Cy5 and Nuclear Green DCS1 were used as fluorescent markers to detect apoptosis and necrosis, respectively. The RI images of the kit-stained cells were also analyzed with the LCDA. The cell death information provided by the fluorescent signals contained within the RI segmentation masks was then compared, with the LCDA results (FIG. 6, E and F).
3T3-L1-derived preadipocyte cells were seeded in a 35 mm dish at ˜30,000 cells/ml and let to grow for 48 h in DMEM supplemented with 10% FBS. 4 hours before starting the acquisition, the cells were treated with 2.5 μM camptothecin (abcam—ab120115) to induce apoptosis. 10 minutes before starting the acquisition, Annexin V-Cy5 and Nuclear Green DCS1 (abcam—ab14147, ab138905) were added to the medium, following the supplier's protocol. […]
RI images were then analyzed and plotted with the LCDA module's features. Fluorescence was quantified by measuring the mean intensity in each cell using RI segmentations using an independent image analysis tool. […]

CC(C)(C)c1ccc(C(=O)CCCN2CCC(OC(c3ccccc3)c3ccccc3)CC2)cc1 [Ebastin]
number of dead cells predicted over time (cell death rate) (HeLa cells): higher cell death rate in the treated condition already at 5 h post treatment | induced cell death over time (LCDA) [1]: treated cells show a very clear curve of induced cell death

CC[C@@]1(O)C(=O)OCc2c1cc1n(c2=O)Cc2cc3ccccc3nc2-1 [camptothecin]
death of cells (LCDA and Annexin V-Cy5 / Nuclear Green DCS1 fluorescence) [2]: accelerates greatly the death of cells and results in the whole cell population dying by the end of the experiment

From patent US20260094266A1, “DIGITAL SYSTEM FOR CELL ASSAYS USING LABEL FREE MICROSCOPY” (NANOLIVE SA, priority 2022, published 2026)
